Assay results reported in ChEMBL document CHEMBL4680155, “One-pot synthesis and molecular docking of some new spiropyranindol-2-one derivatives as immunomodulatory agents and in vitro antimicrobial potential with DNA gyrase inhibitor” (Eur J Med Chem, 2020).
Values after ≈ are worked out from the molar mass of the structure shown. Active and inactive are the calls of the source. No cut-off for these calls is given here.

Legend:
Enterococcus faecalis [1] = experiment: Antibacterial activity against Enterococcus faecalis ATCC 29212 assessed as diameter of inhibition zone at 0.5 mg/ml incubated for 24 hrs by agar diffusion method; format: functional; details: for zone of inhibition at 500 µg/mL: read-out: DIZ
Salmonella typhimurium [2] = experiment: Antibacterial activity against Salmonella typhi ATCC 6539 assessed as diameter of inhibition zone at 0.5 mg/ml incubated for 24 hrs by agar diffusion method; format: functional, Salmonella enterica subsp. enterica serovar Typhimurium; details: for zone of inhibition at 500 µg/mL: Salmonella enterica, read-out: DIZ
Staphylococcus aureus [3] = experiment: Antibacterial activity against Staphylococcus aureus ATCC 29213 assessed as reduction in bacterial growth incubated for 1 day by paper disk diffusion method; format: functional
Candida albicans [4] = experiment: Antifungal activity against Candida albicans ATCC 10231 assessed as reduction in bacterial growth incubated for 1 day by paper disk diffusion method; format: functional
Enterococcus faecalis [5] = experiment: Antibacterial activity against Enterococcus faecalis ATCC 29212 assessed as reduction in bacterial growth incubated for 1 day by paper disk diffusion method; format: functional
Staphylococcus aureus [6] = experiment: Antibacterial activity against Staphylococcus aureus ATCC 29213 assessed as diameter of inhibition zone at 0.5 mg/ml incubated for 24 hrs by agar diffusion method; format: functional; details: for zone of inhibition at 500 µg/mL: read-out: DIZ
Escherichia coli [7] = experiment: Antibacterial activity against Escherichia coli ATCC 25922 assessed as diameter of inhibition zone at 0.5 mg/ml incubated for 24 hrs by agar diffusion method; format: functional; details: for zone of inhibition at 500 µg/mL: read-out: DIZ
Candida albicans [8] = experiment: Antifungal activity against Candida albicans ATCC 10231 assessed as diameter of inhibition zone at 0.5 mg/ml incubated for 24 hrs by agar diffusion method; format: functional; details: for zone of inhibition at 500 µg/mL: read-out: DIZ
Aspergillus brasiliensis [9] = experiment: Antifungal activity against Aspergillus brasiliensis ATCC 16404 assessed as reduction in bacterial growth incubated for 3 days by paper disk diffusion method; format: functional
Salmonella typhimurium [10] = experiment: Antibacterial activity against Salmonella typhi ATCC 6539 assessed as reduction in bacterial growth incubated for 1 day by paper disk diffusion method; format: functional, Salmonella enterica subsp. enterica serovar Typhimurium
Aspergillus brasiliensis [11] = experiment: Antifungal activity against Aspergillus brasiliensis ATCC 16404 assessed as diameter of inhibition zone at 0.5 mg/ml incubated for 72 hrs by agar diffusion method; format: functional; details: for zone of inhibition at 500 µg/mL: read-out: DIZ
Escherichia coli [12] = experiment: Antibacterial activity against Escherichia coli ATCC 25922 assessed as reduction in bacterial growth incubated for 1 day by paper disk diffusion method; format: functional
Candida albicans [13] = experiment: Fungicidal activity against Candida albicans ATCC 10231 incubated for 24 hrs followed by transferring to freshly prepared broth medium and measured after 24 hrs by broth microdilution assay; format: functional; details: time 48 hrs
Aspergillus brasiliensis [14] = experiment: Fungicidal activity against Aspergillus brasiliensis ATCC 16404 incubated for 72 hrs followed by transferring to freshly prepared broth medium and measured after 24 hrs by broth microdilution assay; format: functional; details: time 96 hrs
Escherichia coli [15] = experiment: Bactericidal activity against Escherichia coli ATCC BAA-196 incubated for 24 hrs followed by transferring to freshly prepared broth medium and measured after 24 hrs by broth microdilution assay; format: functional; details: time 48 hrs
Staphylococcus aureus [16] = experiment: Bactericidal activity against Staphylococcus aureus ATCC 33591 incubated for 24 hrs followed by transferring to freshly prepared broth medium and measured after 24 hrs by broth microdilution assay; format: functional; details: time 48 hrs
Staphylococcus aureus [17] = experiment: Antibacterial activity against multidrug resistant Staphylococcus aureus ATCC 43300 assessed as reduction in bacterial growth incubated for 1 day by paper disk diffusion method; format: functional; details: ATCC 43300, 24 h
Pseudomonas aeruginosa [18] = experiment: Bactericidal activity against Pseudomonas aeruginosa ATCC BAA-2111 incubated for 24 hrs followed by transferring to freshly prepared broth medium and measured after 24 hrs by broth microdilution assay; format: functional; details: time 48 hrs
Pseudomonas aeruginosa [19] = experiment: Antibacterial activity against multidrug resistant Pseudomonas aeruginosa ATCC BAA-2111 assessed as reduction in bacterial growth incubated for 1 day by paper disk diffusion method; format: functional; details: ATCC BAA-2111, 24 h
Staphylococcus aureus [20] = experiment: Bactericidal activity against Staphylococcus aureus ATCC 43300 incubated for 24 hrs followed by transferring to freshly prepared broth medium and measured after 24 hrs by broth microdilution assay; format: functional; details: time 48 hrs
Staphylococcus aureus [21] = experiment: Antibacterial activity against multidrug resistant Staphylococcus aureus ATCC 33591 assessed as reduction in bacterial growth incubated for 1 day by paper disk diffusion method; format: functional; details: ATCC 33591, 24 h
Escherichia coli [22] = experiment: Antibacterial activity against multidrug resistant Escherichia coli ATCC BAA-196 assessed as reduction in bacterial growth incubated for 1 day by paper disk diffusion method; format: functional; details: ATCC BAA-196, 24 h
Escherichia coli [23] = experiment: Antibacterial activity against multidrug resistant Escherichia coli ATCC BAA-196 assessed as diameter of inhibition zone at 0.5 mg/ml incubated for 24 hrs by agar diffusion method; format: functional; details: read-out: DIZ
Staphylococcus aureus [24] = experiment: Antibacterial activity against multidrug resistant Staphylococcus aureus ATCC 33591 assessed as diameter of inhibition zone at 0.5 mg/ml incubated for 24 hrs by agar diffusion method; format: functional; details: read-out: DIZ
Staphylococcus aureus [25] = experiment: Antibacterial activity against multidrug resistant Staphylococcus aureus ATCC 43300 assessed as diameter of inhibition zone at 0.5 mg/ml incubated for 24 hrs by agar diffusion method; format: functional; details: read-out: DIZ
Pseudomonas aeruginosa [26] = experiment: Antibacterial activity against multidrug resistant Pseudomonas aeruginosa ATCC BAA-2111 assessed as diameter of inhibition zone at 0.5 mg/ml incubated for 24 hrs by agar diffusion method; format: functional; details: read-out: DIZ
Staphylococcus aureus [27] = experiment: Bactericidal activity against Staphylococcus aureus ATCC 29213 incubated for 24 hrs followed by transferring to freshly prepared broth medium and measured after 24 hrs by broth microdilution assay; format: functional; details: time 48 hrs
Enterococcus faecalis [28] = experiment: Bactericidal activity against Enterococcus faecalis ATCC 29212 incubated for 24 hrs followed by transferring to freshly prepared broth medium and measured after 24 hrs by broth microdilution assay; format: functional; details: time 48 hrs
Escherichia coli [29] = experiment: Bactericidal activity against Escherichia coli ATCC 25922 incubated for 24 hrs followed by transferring to freshly prepared broth medium and measured after 24 hrs by broth microdilution assay; format: functional; details: time 48 hrs
Salmonella typhimurium [30] = experiment: Bactericidal activity against Salmonella typhi ATCC 6539 incubated for 24 hrs followed by transferring to freshly prepared broth medium and measured after 24 hrs by broth microdilution assay; format: functional, Salmonella enterica subsp. enterica serovar […]; details: Salmonella enterica, time 48 hrs
[31] = Salmonella enterica, ATCC 6539, 24 h
[32] = Salmonella enterica subsp. enterica serovar Typhimurium

| Structure (SMILES) | zone of inhibition at 500 µg/mL (Enterococcus faecalis [1]) [mm] | zone of inhibition at 500 µg/mL (Salmonella typhimurium [2]) [mm] | MIC (Staphylococcus aureus [3]; ATCC 29213, 24 h) [µg/mL] | MIC (Candida albicans [4]; ATCC 10231, 24 h) [µg/mL] | MIC (Enterococcus faecalis [5]; ATCC 29212, 24 h) [µg/mL] | zone of inhibition at 500 µg/mL (Staphylococcus aureus [6]) [mm] | zone of inhibition at 500 µg/mL (Escherichia coli [7]) [mm] | zone of inhibition at 500 µg/mL (Candida albicans [8]) [mm] | MIC (Aspergillus brasiliensis [9]; ATCC 16404, 72 h, time 3 day) [µg/mL] | MIC (Salmonella typhimurium [10]; [31]) [µg/mL] | zone of inhibition at 500 µg/mL (Aspergillus brasiliensis [11]) [mm] | MIC (Escherichia coli [12]; ATCC 25922, 24 h) [µg/mL] | other results |
| --- | --- | --- | --- | --- | --- | --- | --- | --- | --- | --- | --- | --- | --- |
| CCOC(=O)C1=C(C)OC(N)=C(C#N)C12C(=O)Nc1ccc(S(=O)(=O)N3CCOCC3)cc12 (centres undefined) | 14 | 15 | 133 (≈ 281 µM) | 88.3 (≈ 186 µM) | 88.3 (≈ 186 µM) | 16 | 19 | 18 | 167 (≈ 351 µM) | 133 (≈ 281 µM) | 10 | 31.2 (≈ 65.9 µM) |  |
| C[C@@H]1[C@H](O)[C@@H](C)/C=C/C=C/C=C/C=C/C=C/C=C/C=C/[C@H](O[C@@H]2O[C@H](C)[C@@H](O)[C@H](N)[C@@H]2O)C[C@@H]2O[C@](O)(C[C@@H](O)C[C@@H](O)[C@H](O)CC[C@@H](O)C[C@@H](O)CC(=O)O[C@H]1C)C[C@H](O)[C@H]2C(=O)O [AMPHOTERICIN B] |  |  |  | 15.6 (≈ 16.9 µM) |  |  |  | 22 | 31.2 (≈ 33.8 µM) |  |  |  | MFC (Candida albicans [13]): 34.6 µg/mL (≈ 37.5 µM); diameter of the inhibition zone (DIZ) (Enterococcus faecalis [1]): inactive; diameter of the inhibition zone (DIZ) (Salmonella typhimurium [2]; [32]): inactive; MIC (Staphylococcus aureus [3]): inactive; MIC (Enterococcus faecalis [5]): inactive; diameter of the inhibition zone (DIZ) (Staphylococcus aureus [6]): inactive; diameter of the inhibition zone (DIZ) (Escherichia coli [7]): inactive; MFC (Aspergillus brasiliensis [14]): 65.6 µg/mL (≈ 71 µM); MIC (Salmonella typhimurium [10]; [32]): inactive; MIC (Escherichia coli [12]): inactive |
| CCn1cc(C(=O)O)c(=O)c2cc(F)c(N3CCNCC3)cc21 [NORFLOXACIN] |  |  |  |  |  |  |  |  |  |  |  |  | MBC (Escherichia coli [15]): 3.53 µg/mL (≈ 11.1 µM); MBC (Staphylococcus aureus [16]): 1.56 µg/mL (≈ 4.89 µM); MIC (Staphylococcus aureus [17]): 1.25 µg/mL (≈ 3.91 µM); MBC (Pseudomonas aeruginosa [18]): 4.69 µg/mL (≈ 14.7 µM); MIC (Pseudomonas aeruginosa [19]): 3.13 µg/mL (≈ 9.8 µM); MBC (Staphylococcus aureus [20]): 2.81 µg/mL (≈ 8.8 µM); MIC (Staphylococcus aureus [21]): 0.78 µg/mL (≈ 2.44 µM); MIC (Escherichia coli [22]): 1.57 µg/mL (≈ 4.92 µM); zone of inhibition at 500 µg/mL (Escherichia coli [23]): 27 mm; zone of inhibition at 500 µg/mL (Staphylococcus aureus [24]): 26 mm; zone of inhibition at 500 µg/mL (Staphylococcus aureus [25]): 25 mm; zone of inhibition at 500 µg/mL (Pseudomonas aeruginosa [26]): 24 mm |
| CCOC(=O)C1=C(C)OC(N)=C(C(=O)OCC)C12C(=O)Nc1ccc(S(=O)(=O)N3CCCCC3)cc12 (centres undefined) | 19 | 13 | 88.3 (≈ 170 µM) | 88.3 (≈ 170 µM) | 35.5 (≈ 68.4 µM) | 13 | 12 | 12 | 133 (≈ 257 µM) | 88.3 (≈ 170 µM) | 12 | 71.1 (≈ 137 µM) |  |
| CCOC(=O)C1=C(N)OC(c2ccccc2)=C(C(=O)OCC)C12C(=O)Nc1ccc(S(=O)(=O)N3CCOCC3)cc12 (centres undefined) | 20 | 13 | 88.3 (≈ 151 µM) | 88.3 (≈ 151 µM) | 31.2 (≈ 53.5 µM) | 17 | 16 | 14 | 133 (≈ 228 µM) | 125 (≈ 214 µM) | 9 | 35.5 (≈ 60.9 µM) |  |
| CCOC(=O)C1=C(C)OC(N)=C(C(=O)OCC)C12C(=O)Nc1ccc(S(=O)(=O)N3CCOCC3)cc12 (centres undefined) | 16 | 10 | 125 (≈ 240 µM) | 125 (≈ 240 µM) | 62.5 (≈ 120 µM) | 14 | 18 | 13 | 133 (≈ 256 µM) | 142 (≈ 273 µM) | 11 | 31.2 (≈ 59.9 µM) |  |
| CN(C)[C@@H]1C(O)=C(C(N)=O)C(=O)[C@@]2(O)C(O)=C3C(=O)c4c(O)cccc4[C@@](C)(O)[C@H]3C[C@@H]12 [TETRACYCLINE] | 22 | 21 | 62.5 (≈ 141 µM) |  | 62.5 (≈ 141 µM) | 25 | 23 |  |  | 62.5 (≈ 141 µM) |  | 15.6 (≈ 35.1 µM) | MBC (Staphylococcus aureus [27]): 87.5 µg/mL (≈ 197 µM); MBC (Enterococcus faecalis [28]): 37.5 µg/mL (≈ 84.4 µM); MIC (Candida albicans [4]): inactive; MBC (Escherichia coli [29]): 18.7 µg/mL (≈ 42.2 µM); MBC (Salmonella typhimurium [30]): 81.2 µg/mL (≈ 183 µM); diameter of the inhibition zone (DIZ) (Candida albicans [8]): inactive; MIC (Aspergillus brasiliensis [9]; time 3.0 day): inactive; diameter of the inhibition zone (DIZ) (Aspergillus brasiliensis [11]): inactive |
